The values below come from ChEMBL document CHEMBL1154790, “Lorneic acids, trialkyl-substituted aromatic acids from a marine-derived actinomycete” (J Nat Prod, 2009).

Active and inactive are the calls of the source. The rule behind the calls is not given here.

Experiment [1] concerns the target T1, cGMP-specific 3',5'-cyclic phosphodiesterase (Homo sapiens, UniProt O76074). The experiment can be described thus: Inhibition of human platelet PDE5 assessed as [3H]cGMP to [3H]GMP conversion at 10 uM pretreated 15 mins before substrate addition measured after 20 mins.
The target in experiment [2] is T1, cGMP-specific 3',5'-cyclic phosphodiesterase. The experiment can be described thus: Inhibition of human platelet PDE5 assessed as [3H]cGMP to [3H]GMP conversion pretreated 15 mins before substrate addition measured after 20 mins.

Regarding `CCCC/C=C/c1cc(C)ccc1/C=C/CC(=O)O` [LORNEIC ACID A], the inhibition entry in experiment [1] is “Active”. Further, the IC50 (as a rule, the concentration that inhibits the measured activity by half) in experiment [2] was found to be 12.6 µM.

For `CCCCCC(O)c1cc(C)ccc1/C=C/CC(=O)O` (stereo not drawn) [LORNEIC ACID B], the IC50 in experiment [2] worked out at 87.1 µM.
